According to the supplement of paper PMC10627819:
Converted amounts (≈) assume the structure as drawn.

Key:
B. subtilis 168 [1] = assay: fitness (endpoint OD595 vs no drug) (fraction); higher = more growth
Method in brief: (§1)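 Fitness was defined as the optical density at the transition into stationary phase relative to the robust mean of no-drug control wells. Values were capped at 1. Cultures were started at OD595 0.01 in 384-well plates (30 µl, or 55 µl for S. pneumoniae) in TSB, LB Lennox or CY at 37 °C. OD595 was recorded every 30 min over 14 h, with the first reading subtracted as background.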

S. pneumoniae D39V [2] = assay: as above
Method in brief: as §1

S. aureus Newman [3] = assay: as above
Method in brief: as §1

S. aureus DSM 20231 [4] = assay: as above
Method in brief: as §1

B. subtilis 168 [5] = assay: Bliss interaction score (quartile over a dose matrix) (fitness difference); higher = more antagonism (negative = synergy)
Method in brief: (§2)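 At entry into stationary phase, OD595 was recorded and divided by the robust mean of the no-drug wells on that plate, with any value above 1 set to 1. This gives the fitness measure used throughout. Single-drug fitness was inferred from combination data, and the Bliss score, observed minus product-expected fitness, is shown as quartiles across technical, biological and donor/recipient replicates.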

S. pneumoniae D39V [6] = assay: as above
Method in brief: as §2

S. aureus Newman [7] = assay: as above
Method in brief: as §2

S. aureus DSM 20231 [8] = assay: as above
Method in brief: as §2

S. pneumoniae D39V [9] = tested on: S. pneumoniae D39V
S. aureus DSM 20231 [10] = tested on: S. aureus DSM 20231
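Throughout, for Bliss interaction score (quartile over a dose matrix): first quartile when negative (synergy) and third quartile when positive (antagonism).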

Cn1c2cccc(=O)c-2nc2ccccc21 [Pyocyanin] + CN[C@@H]1[C@H](O)[C@H](NC)[C@H]2O[C@@]3(O)C(=O)C[C@@H](C)O[C@H]3O[C@@H]2[C@H]1O [Spectinomycin]
fitness
Conditions	partner 2 µg/mL	partner 4 µg/mL	partner 8 µg/mL	partner 16 µg/mL
B. subtilis 168 [1], first compound 1.25 µg/mL	0.907	0.914	0.861	–
B. subtilis 168 [1], first compound 2.5 µg/mL	0.887	0.876	0.857	–
B. subtilis 168 [1], first compound 5 µg/mL	0.762	0.757	0.708	–
S. aureus DSM 20231 [4], first compound 1.25 µg/mL	–	0.884	0.93	0.82
S. aureus DSM 20231 [4], first compound 2.5 µg/mL	–	0.868	0.86	0.716
S. aureus DSM 20231 [4], first compound 5 µg/mL	–	0.688	0.726	0.582
S. aureus Newman [3], first compound 1.25 µg/mL	–	0.853	0.867	0.853
S. aureus Newman [3], first compound 2.5 µg/mL	–	0.761	0.766	0.697
S. pneumoniae D39V [2], first compound 0.325 µg/mL	–	0.995	0.955	–
S. pneumoniae D39V [2], first compound 0.65 µg/mL	–	0.96	0.944	–

fitness, one replicate
Conditions	S. aureus DSM 20231 [4]	S. aureus Newman [3]	S. pneumoniae D39V [2]
first compound 0.325 µg/mL, partner 16 µg/mL	–	–	0.729
first compound 0.65 µg/mL, partner 16 µg/mL	–	–	0.885
first compound 1.25 µg/mL, partner 32 µg/mL	0.656	0.591	–
first compound 1.25 µg/mL, partner 64 µg/mL	0.0503	0.11	–
first compound 1.3 µg/mL, partner 4 µg/mL	–	–	0.776
first compound 1.3 µg/mL, partner 8 µg/mL	–	–	0.792
first compound 2.5 µg/mL, partner 32 µg/mL	0.638	0.489	–
first compound 2.5 µg/mL, partner 64 µg/mL	0.0416	0.0964	–
first compound 5 µg/mL, partner 32 µg/mL	0.342	0.268	–
first compound 5 µg/mL, partner 64 µg/mL	0.0295	0.0535	–

Conditions	Bliss interaction score
B. subtilis 168 [5]	-0.0432
S. aureus DSM 20231 [8]	-0.0492
S. aureus Newman [7]	0.0628
S. pneumoniae D39V [6]	0.0496

Cn1c2cccc(=O)c-2nc2ccccc21 [Pyocyanin] + Cc1cc(NS(=O)(=O)c2ccc(N)cc2)no1 [Sulfamethoxazol]
one replicate
Conditions	fitness
B. subtilis 168 [1], first compound 1.25 µg/mL, partner 0.5 µg/mL	0.915
B. subtilis 168 [1], first compound 2.5 µg/mL, partner 0.5 µg/mL	0.884
B. subtilis 168 [1], first compound 5 µg/mL, partner 0.5 µg/mL	0.632
S. aureus Newman [3], first compound 1.25 µg/mL, partner 8 µg/mL	0.911
S. aureus Newman [3], first compound 2.5 µg/mL, partner 8 µg/mL	0.858
S. aureus Newman [3], first compound 5 µg/mL, partner 8 µg/mL	0.778
S. pneumoniae D39V [2], first compound 1.3 µg/mL, partner 1 µg/mL	0.637
S. pneumoniae D39V [2], first compound 1.3 µg/mL, partner 2 µg/mL	0.679
S. pneumoniae D39V [2], first compound 1.3 µg/mL, partner 4 µg/mL	0.615

fitness
Conditions	partner 1 µg/mL	partner 2 µg/mL	partner 4 µg/mL
B. subtilis 168 [1], first compound 1.25 µg/mL	0.869	0.862	0.877
B. subtilis 168 [1], first compound 2.5 µg/mL	0.852	0.738	0.868
B. subtilis 168 [1], first compound 5 µg/mL	0.669	0.685	0.774
S. aureus DSM 20231 [4], first compound 1.25 µg/mL	0.929	0.939	0.925
S. aureus DSM 20231 [4], first compound 2.5 µg/mL	0.831	0.903	0.893
S. aureus DSM 20231 [4], first compound 5 µg/mL	0.641	0.674	0.689
S. pneumoniae D39V [2], first compound 0.325 µg/mL	0.983	≥ 1	0.96
S. pneumoniae D39V [2], first compound 0.65 µg/mL	0.936	0.975	0.933

Conditions	Bliss interaction score
B. subtilis 168 [5]	-0.063
S. aureus DSM 20231 [8]	0.0564
S. aureus Newman [7]	-0.0714
S. pneumoniae D39V [6]	-0.0551

CN(N=O)C(=O)N[C@@H](C=O)[C@@H](O)[C@H](O)[C@H](O)CO [Streptozotocin] + CC1=C\[C@@H](O)CC(=O)Cc2nc(co2)C(=O)N2CCC=C2C(=O)O[C@H](C(C)C)[C@H](C)/C=C/C(=O)NC\C=C\1 [Virginiamycin M1]
fitness, one replicate
Conditions	first compound 0.15 µg/mL	first compound 0.3 µg/mL	first compound 0.6 µg/mL	first compound 1.2 µg/mL	first compound 2.4 µg/mL	first compound 4.8 µg/mL
B. subtilis 168 [1], partner 0.0625 µg/mL	≥ 1	0.975	0.991	–	–	–
B. subtilis 168 [1], partner 0.125 µg/mL	0.949	0.92	0.944	–	–	–
B. subtilis 168 [1], partner 0.25 µg/mL	≥ 1	≥ 1	0.958	–	–	–
S. aureus DSM 20231 [4], partner 0.5 µg/mL	0.616	0.686	0.581	–	–	–
S. aureus DSM 20231 [4], partner 1 µg/mL	0.61	0.69	0.667	–	–	–
S. aureus Newman [3], partner 0.0625 µg/mL	0.843	0.677	0.491	–	–	–
S. aureus Newman [3], partner 0.125 µg/mL	0.831	0.682	0.504	–	–	–
S. aureus Newman [3], partner 0.25 µg/mL	0.822	0.661	0.53	–	–	–
S. aureus Newman [3], partner 0.5 µg/mL	0.77	0.639	0.55	–	–	–
S. aureus Newman [3], partner 1 µg/mL	0.765	0.672	0.517	–	–	–
S. aureus Newman [3], partner 2 µg/mL	0.748	0.629	0.477	–	–	–
S. pneumoniae D39V [2], partner 0.15 µg/mL	–	–	–	0.913	0.94	0.88
S. pneumoniae D39V [2], partner 0.3 µg/mL	–	–	–	0.848	0.93	0.925

fitness
Conditions	first compound 0.15 µg/mL	first compound 0.3 µg/mL	first compound 0.6 µg/mL	first compound 1.2 µg/mL	first compound 2.4 µg/mL	first compound 4.8 µg/mL
S. aureus DSM 20231 [4], partner 0.0625 µg/mL	0.844	0.791	0.66	–	–	–
S. aureus DSM 20231 [4], partner 0.125 µg/mL	0.88	0.83	0.714	–	–	–
S. aureus DSM 20231 [4], partner 0.25 µg/mL	0.861	0.753	0.681	–	–	–
S. pneumoniae D39V [2], partner 0.5 µg/mL	–	–	–	0.985	0.99	0.981
S. pneumoniae D39V [2], partner 1 µg/mL	–	–	–	0.944	0.966	0.968
S. pneumoniae D39V [2], partner 2 µg/mL	–	–	–	0.935	0.939	0.911

Conditions	Bliss interaction score
B. subtilis 168 [5]	0.0477
S. aureus DSM 20231 [8]	-0.0415
S. aureus Newman [7]	0.0262
S. pneumoniae D39V [6]	-0.0403

Cc1cc(NS(=O)(=O)c2ccc(N)cc2)no1 [Sulfamethoxazol] + CC1=C\[C@@H](O)CC(=O)Cc2nc(co2)C(=O)N2CCC=C2C(=O)O[C@H](C(C)C)[C@H](C)/C=C/C(=O)NC\C=C\1 [Virginiamycin M1]
one replicate
Conditions	fitness
B. subtilis 168 [1], first compound 0.5 µg/mL, partner 0.0625 µg/mL	0.982
B. subtilis 168 [1], first compound 0.5 µg/mL, partner 0.125 µg/mL	0.928
B. subtilis 168 [1], first compound 0.5 µg/mL, partner 0.25 µg/mL	≥ 1
S. aureus DSM 20231 [4], first compound 1 µg/mL, partner 0.5 µg/mL	0.88
S. aureus DSM 20231 [4], first compound 1 µg/mL, partner 1 µg/mL	0.709
S. aureus DSM 20231 [4], first compound 2 µg/mL, partner 0.5 µg/mL	0.915
S. aureus DSM 20231 [4], first compound 2 µg/mL, partner 1 µg/mL	0.679
S. aureus DSM 20231 [4], first compound 4 µg/mL, partner 0.5 µg/mL	0.797
S. aureus DSM 20231 [4], first compound 4 µg/mL, partner 1 µg/mL	0.8
S. aureus Newman [3], first compound 1 µg/mL, partner 0.5 µg/mL	0.873
S. aureus Newman [3], first compound 1 µg/mL, partner 1 µg/mL	0.869
S. aureus Newman [3], first compound 1 µg/mL, partner 2 µg/mL	0.841
S. aureus Newman [3], first compound 2 µg/mL, partner 0.5 µg/mL	0.911
S. aureus Newman [3], first compound 2 µg/mL, partner 1 µg/mL	0.925
S. aureus Newman [3], first compound 2 µg/mL, partner 2 µg/mL	0.809
S. aureus Newman [3], first compound 4 µg/mL, partner 0.5 µg/mL	0.956
S. aureus Newman [3], first compound 4 µg/mL, partner 1 µg/mL	0.908
S. aureus Newman [3], first compound 4 µg/mL, partner 2 µg/mL	0.839
S. aureus Newman [3], first compound 8 µg/mL, partner 0.0625 µg/mL	0.905
S. aureus Newman [3], first compound 8 µg/mL, partner 0.125 µg/mL	0.921
S. aureus Newman [3], first compound 8 µg/mL, partner 0.25 µg/mL	0.945
S. pneumoniae D39V [2], first compound 1 µg/mL, partner 0.15 µg/mL	0.905
S. pneumoniae D39V [2], first compound 1 µg/mL, partner 0.3 µg/mL	0.895
S. pneumoniae D39V [2], first compound 2 µg/mL, partner 0.15 µg/mL	0.923
S. pneumoniae D39V [2], first compound 2 µg/mL, partner 0.3 µg/mL	0.902
S. pneumoniae D39V [2], first compound 4 µg/mL, partner 0.15 µg/mL	0.92
S. pneumoniae D39V [2], first compound 4 µg/mL, partner 0.3 µg/mL	0.913

fitness
Conditions	first compound 1 µg/mL	first compound 2 µg/mL	first compound 4 µg/mL
B. subtilis 168 [1], partner 0.0625 µg/mL	0.887	0.905	0.901
B. subtilis 168 [1], partner 0.125 µg/mL	0.878	0.876	0.901
B. subtilis 168 [1], partner 0.25 µg/mL	0.983	0.919	0.993
S. aureus DSM 20231 [4], partner 0.0625 µg/mL	≥ 1	≥ 1	0.964
S. aureus DSM 20231 [4], partner 0.125 µg/mL	≥ 1	0.995	0.955
S. aureus DSM 20231 [4], partner 0.25 µg/mL	0.944	0.971	0.95
S. aureus Newman [3], partner 0.0625 µg/mL	≥ 1	≥ 1	≥ 1
S. aureus Newman [3], partner 0.125 µg/mL	≥ 1	≥ 1	≥ 1
S. aureus Newman [3], partner 0.25 µg/mL	≥ 1	≥ 1	≥ 1
S. pneumoniae D39V [2], partner 0.5 µg/mL	0.992	0.99	0.928
S. pneumoniae D39V [2], partner 1 µg/mL	0.988	0.986	0.917
S. pneumoniae D39V [2], partner 2 µg/mL	0.906	0.93	0.925

Conditions	Bliss interaction score
B. subtilis 168 [5]	0.0577
S. aureus DSM 20231 [8]	0.0829
S. aureus Newman [7]	0.0283
S. pneumoniae D39V [6]	-0.05

Oc1cc(Cl)ccc1Oc1ccc(Cl)cc1Cl [Triclosan]
Conditions	MIC [µg/mL]
S. aureus DSM 20231 [10]	0.08 (≈ 0.276 µM)
S. pneumoniae D39V [9]	16 (≈ 55.3 µM)
